In article PMC10235067, “Increased renal elimination of endogenous and synthetic pyrimidine nucleosides in concentrative nucleoside transporter 1 deficient mice” (Nature Communications, 2023):
Several values for one entry are separate records, joined by “and”; a condition that tells them apart may be missing. Equal entries are not always repeated. Structures can show the parent of a compound that is named as a salt.

Test: Gemcitabine plasma pharmacokinetics in Slc28a1+/+ and Slc28a1-/- mice
Conditions: for AUCINF_D_obs / AUCINF_D_pred / AUCINF_obs / AUCINF_pred / AUC_%Back_Ext_obs / AUC_%Back_Ext_pred / AUC_%Extrap_obs / AUC_%Extrap_pred / AUCall / AUClast / AUClast_D / AUMCINF_obs / AUMCINF_pred / AUMC_%Extrap_obs / AUMC_%Extrap_pred / AUMClast / C0 / Cl_obs / Cl_pred / Clast / Clast_pred / Cmax_D / HL_Lambda_z / Lambda_z / MRTINF_obs / MRTINF_pred / MRTlast / Tlast / Tmax / Vss_obs / Vss_pred / Vz_obs / Vz_pred: Gemcitabine in plasma, iv gemcitabine 50mg/kg, per mouse; for AUC (Last): plasma
[1] = Slc28a1-/- mice, single i.v. dFdC 50 mg/kg

Protocol: To collect blood, a 5 mm lancet was used to apply pressure to the submandibular vein and release blood flow. For retro-orbital collection, mice were anesthetized with 3% isoflurane in oxygen, and the blood was collected directly into heparinized capillary tubes by applying slight pressure to the medial canthus of the eye. Cardiac puncture was performed as the final collection method by first euthanizing the mice in a CO2 chamber and immediately performing posterior cardiac puncture by inserting a 27 G needle with a 1 ml syringe attachment into the heart. Once blood collection was completed, gentle pressure was applied to the blood collection area using gauze to stop the bleeding. Thirty microliters of blood was collected into heparinized capillary tubes at each time point, transferred into prelabeled 0.5 ml microcentrifuge tubes containing THU (10 µg/ml; final concentration), and immediately processed and snap-frozen following procedures outlined in the “Gemcitabine plasma pharmacokinetics” methods section.
Gemcitabine and dFdU plasma concentrations were measured using a modified version of our previously published UHPLC–MS/MS method for nucleosides[74] […] Noncompartmental pharmacokinetic parameters (Cmax, Tmax, AUC, CL, T1/2, etc.) were calculated using WinNonlin 6.2 software (Pharsight; Mountain View, CA). […] The Cmax and Tmax were obtained from the concentration-time curve. The AUC was calculated according to the linear trapezoidal rule up to the last time point with a measurable concentration of the analyte of interest. Significant differences between Slc28a1^+/+ and Slc28a1^−/− mouse pharmacokinetic parameters (p < 0.05) were evaluated with an unpaired two-sided Student’s t-test.
The resulting supernatant was evaporated to dryness in a SpeedVac, and the remaining residue was reconstituted in mobile phase A for subsequent analysis. […] Subsequent processing was identical to that for the plasma and urine samples.
Briefly, the analysis was performed on an Imtakt Schzero SM C18 column, 2.1 × 100 mm, 3.0 µm particle size. The eluents used consisted of mobile phase A consisting of 50 mM ammonium formate:50 mM ammonium hydroxide (9:1, v/v) (pH = 8.6) and mobile phase B consisting of 50 mM ammonium formate:50 mM ammonium hydroxide (9:1, v/v):ACN (80:20, v/v) (pH = 8.6). […] The injection volume was 10 μL, and the autosampler temperature was set at 4 °C throughout the analysis.
The Waters Triple Quadrupole Mass Spectrometer with an ESI source was operated in negative and positive ion mode at a spray voltage of 2.5 kV, capillary temperature of 150 °C, and vaporizer temperature of 250 °C. Compound optimization was performed manually using the MassLynx 4.1 Software AutoTune Wizard (Waters, Milford, MA) by infusion into the mass spectrometer using a T-connector. […] Analyze concentrations were determined and analyzed using MassLynx Mass Spectrometry Software (Waters; Milford, MA).

With `Nc1ccn([C@@H]2O[C@H](CO)[C@@H](O)C2(F)F)c(=O)n1` [dFdC, Gemcitabine hydrochloride, reference compound] the AUCINF_D_obs (KO mice) was 916.304 kg·ng·min/mL/mg and 1339.88 kg·ng·min/mL/mg and 778.001 kg·ng·min/mL/mg and 1050.65 kg·ng·min/mL/mg and 1326.68 kg·ng·min/mL/mg and 1607.46 kg·ng·min/mL/mg, the AUCINF_D_pred (KO mice) was 916.913 kg·ng·min/mL/mg and 1340.31 kg·ng·min/mL/mg and 775.108 kg·ng·min/mL/mg and 1031 kg·ng·min/mL/mg and 1323.42 kg·ng·min/mL/mg and 1604.92 kg·ng·min/mL/mg and the AUCINF_obs (KO mice) was 45815.2 ng·min/mL and 66994.2 ng·min/mL and 38900.1 ng·min/mL and 52532.6 ng·min/mL and 66334.2 ng·min/mL and 80373 ng·min/mL. For the same compound, the AUCINF_pred (KO mice) was 45845.6 ng·min/mL and 67015.6 ng·min/mL and 38755.4 ng·min/mL and 51550 ng·min/mL and 66171.1 ng·min/mL and 80246 ng·min/mL, the AUC_%Back_Ext_obs (KO mice) was 23.4974% and 21.9481% and 43.9469% and 42.6077% and 48.9911% and 43.8068% and the AUC_%Back_Ext_pred (KO mice) was 23.4818% and 21.941% and 44.1109% and 43.4198% and 49.1119% and 43.8762%. The AUC_%Extrap_obs (KO mice) was 23.7% and 27.5311% and 0.9315% and 2.802% and 0.4504% and 6.001%, the AUC_%Extrap_pred (KO mice) was 23.7507% and 27.5543% and 0.5618% and 0.9493% and 0.2051% and 5.852% and the AUCall (KO mice) was 36446.4 ng·min/mL and 50206 ng·min/mL and 39423.8 ng·min/mL and 51060.7 ng·min/mL and 66882.1 ng·min/mL and 76930.3 ng·min/mL. For the same compound, the AUClast (KO mice) was 34957 ng·min/mL and 48549.9 ng·min/mL and 38537.7 ng·min/mL and 51060.7 ng·min/mL and 66035.4 ng·min/mL and 75549.7 ng·min/mL, the AUClast_D (KO mice) was 699.14 kg·ng·min/mL/mg and 970.999 kg·ng·min/mL/mg and 770.754 kg·ng·min/mL/mg and 1021.21 kg·ng·min/mL/mg and 1320.71 kg·ng·min/mL/mg and 1510.99 kg·ng·min/mL/mg and the AUMCINF_obs (KO mice) was 6487547 min*min*ng/mL and 15108021 min*min*ng/mL and 317047 min*min*ng/mL and 1417805 min*min*ng/mL and 460548 min*min*ng/mL and 2237155 min*min*ng/mL. For the same compound, the AUMCINF_pred (KO mice) was 6504522 min*min*ng/mL and 15124898 min*min*ng/mL and 306594 min*min*ng/mL and 1123964 min*min*ng/mL and 449037 min*min*ng/mL and 2195280 min*min*ng/mL, the AUMC_%Extrap_obs (KO mice) was 93.2939% and 96.2322% and 8.26% and 31.0459% and 4.579% and 71.0667% and the AUMC_%Extrap_pred (KO mice) was 93.3114% and 96.2364% and 5.1318% and 13.0191% and 2.133% and 70.5148%. The AUMClast (KO mice) was 435061 min*min*ng/mL and 569242 min*min*ng/mL and 290860 min*min*ng/mL and 977634 min*min*ng/mL and 439460 min*min*ng/mL and 647283 min*min*ng/mL, the C0 (KO mice) was 2226.24 ng/mL and 3096.19 ng/mL and 4174.86 ng/mL and 5972.33 ng/mL and 9031.34 ng/mL and 9852.43 ng/mL and the Cl_obs (KO mice) was 1091.34 mL/min/kg and 746.334 mL/min/kg and 1285.35 mL/min/kg and 951.789 mL/min/kg and 753.759 mL/min/kg and 622.099 mL/min/kg. The Cl_pred (KO mice) was 1090.62 mL/min/kg and 746.095 mL/min/kg and 1290.14 mL/min/kg and 969.932 mL/min/kg and 755.617 mL/min/kg and 623.084 mL/min/kg, the Clast (KO mice) was 24.8237 ng/mL and 27.6006 ng/mL and 29.5353 ng/mL and 24.934 ng/mL and 28.2215 ng/mL and 23.0093 ng/mL and the Clast_pred (KO mice) was 24.8933 ng/mL and 27.6326 ng/mL and 17.7456 ng/mL and 8.289 ng/mL and 12.8177 ng/mL and 22.4033 ng/mL. For the same compound, the Cmax_D (KO mice) was 41.5984 kg·ng/mL/mg and 55.7076 kg·ng/mL/mg and 53.2658 kg·ng/mL/mg and 59.6169 kg·ng/mL/mg and 79.356 kg·ng/mL/mg and 84.6224 kg·ng/mL/mg, the HL_Lambda_z (KO mice) was 303.191 min and 463.2 min and 8.504 min and 40.9198 min and 7.338 min and 145.3 min and the Lambda_z (KO mice) was 0.002286 min⁻¹ and 0.001496 min⁻¹ and 0.08151 min⁻¹ and 0.01694 min⁻¹ and 0.09446 min⁻¹ and 0.00477 min⁻¹. The MRTINF_obs (KO mice) was 141.603 min and 225.512 min and 8.15 min and 26.989 min and 6.943 min and 27.8346 min, the MRTINF_pred (KO mice) was 141.879 min and 225.692 min and 7.911 min and 21.8034 min and 6.786 min and 27.3569 min and the MRTlast (KO mice) was 12.4456 min and 11.7249 min and 7.547 min and 19.1465 min and 6.655 min and 8.568 min. The Tlast (KO mice) was 120 min and 60 min and 240 min, the Tmax (KO mice) was 5 min and the Vss_obs (KO mice) was 154.537 L/kg and 168.308 L/kg and 10.4759 L/kg and 25.6879 L/kg and 5.23323 L/kg and 17.3159 L/kg. For the same compound, the Vss_pred (KO mice) was 154.735 L/kg and 168.388 L/kg and 10.2063 L/kg and 21.1478 L/kg and 5.12762 L/kg and 17.0456 L/kg, the Vz_obs (KO mice) was 477.366 L/kg and 498.742 L/kg and 15.7693 L/kg and 56.1887 L/kg and 7.97936 L/kg and 130.407 L/kg and the Vz_pred (KO mice) was 477.049 L/kg and 498.582 L/kg and 15.8281 L/kg and 57.2597 L/kg and 7.99903 L/kg and 130.613 L/kg. The AUCINF_D_obs (WT mice) was 1342.37 kg·ng·min/mL/mg and 2003.95 kg·ng·min/mL/mg and 1404.16 kg·ng·min/mL/mg and 1832.16 kg·ng·min/mL/mg and 1677.59 kg·ng·min/mL/mg and 1947.35 kg·ng·min/mL/mg, the AUCINF_D_pred (WT mice) was 1351.51 kg·ng·min/mL/mg and 2009.55 kg·ng·min/mL/mg and 1397.88 kg·ng·min/mL/mg and 1826.34 kg·ng·min/mL/mg and 1669.05 kg·ng·min/mL/mg and 1936.73 kg·ng·min/mL/mg and the AUCINF_obs (WT mice) was 100198 ng·min/mL and 70207.8 ng·min/mL and 91608.1 ng·min/mL and 83879.3 ng·min/mL and 97367.3 ng·min/mL. For the same compound, the AUCINF_pred (WT mice) was 100478 ng·min/mL and 69893.8 ng·min/mL and 91317 ng·min/mL and 83452.5 ng·min/mL and 96836.3 ng·min/mL, the AUC_%Back_Ext_obs (WT mice) was 12.8582% and 20.8763% and 29.2762% and 32.2576% and 32.4305% and 25.1142% and the AUC_%Back_Ext_pred (WT mice) was 12.7713% and 20.8181% and 29.4077% and 32.3604% and 32.5963% and 25.252%. For the same compound, the AUC_%Extrap_obs (WT mice) was 9.702% and 18.5437% and 0.7839% and 0.5327% and 0.8134% and 0.9221%, the AUC_%Extrap_pred (WT mice) was 10.3129% and 18.7708% and 0.3382% and 0.2157% and 0.3062% and 0.3788% and the AUCall (WT mice) was 81617.2 ng·min/mL and 71149.3 ng·min/mL and 92539.9 ng·min/mL and 85061.6 ng·min/mL and 98831 ng·min/mL. The AUClast (WT mice) was 81617.2 ng·min/mL and 69657.4 ng·min/mL and 91120.1 ng·min/mL and 83197 ng·min/mL and 96469.4 ng·min/mL, the AUClast_D (WT mice) was 1212.13 kg·ng·min/mL/mg and 1632.34 kg·ng·min/mL/mg and 1393.15 kg·ng·min/mL/mg and 1822.4 kg·ng·min/mL/mg and 1663.94 kg·ng·min/mL/mg and 1929.39 kg·ng·min/mL/mg and the AUMCINF_obs (WT mice) was 5069956 min*min*ng/mL and 20471433 min*min*ng/mL and 1064873 min*min*ng/mL and 1254821 min*min*ng/mL and 1108567 min*min*ng/mL and 1728699 min*min*ng/mL. The AUMCINF_pred (WT mice) was 5292862 min*min*ng/mL and 20755711 min*min*ng/mL and 1020250 min*min*ng/mL and 1213897 min*min*ng/mL and 1047980 min*min*ng/mL and 1652866 min*min*ng/mL, the AUMC_%Extrap_obs (WT mice) was 62.651% and 92.1199% and 7.346% and 5.469% and 8.737% and 7.417% and the AUMC_%Extrap_pred (WT mice) was 64.2239% and 92.2278% and 3.293% and 2.282% and 3.461% and 3.17%. The AUMClast (WT mice) was 1893578 min*min*ng/mL and 1613171 min*min*ng/mL and 986649 min*min*ng/mL and 1186197 min*min*ng/mL and 1011712 min*min*ng/mL and 1600474 min*min*ng/mL, the C0 (WT mice) was 1738.74 ng/mL and 4426.87 ng/mL and 4597.66 ng/mL and 7279.69 ng/mL and 6681.38 ng/mL and 5877.84 ng/mL and the Cl_obs (WT mice) was 499.014 mL/min/kg and 712.172 mL/min/kg and 545.803 mL/min/kg and 596.095 mL/min/kg and 513.519 mL/min/kg. For the same compound, the Cl_pred (WT mice) was 739.914 mL/min/kg and 497.623 mL/min/kg and 715.371 mL/min/kg and 547.543 mL/min/kg and 599.143 mL/min/kg and 516.335 mL/min/kg, the Clast (WT mice) was 26.282 ng/mL and 23.9761 ng/mL and 24.8646 ng/mL and 23.6637 ng/mL and 31.0775 ng/mL and 39.3598 ng/mL and the Clast_pred (WT mice) was 28.1263 ng/mL and 24.3375 ng/mL and 10.6806 ng/mL and 9.552 ng/mL and 11.6372 ng/mL and 16.0822 ng/mL. The Cmax_D (WT mice) was 35.2165 kg·ng/mL/mg and 78.8031 kg·ng/mL/mg and 72.4804 kg·ng/mL/mg and 90.8107 kg·ng/mL/mg and 83.992 kg·ng/mL/mg and 78.0677 kg·ng/mL/mg, the HL_Lambda_z (WT mice) was 171.744 min and 537.158 min and 15.3422 min and 14.2945 min and 15.2178 min and 15.8118 min and the Lambda_z (WT mice) was 0.004036 min⁻¹ and 0.00129 min⁻¹ and 0.04518 min⁻¹ and 0.04849 min⁻¹ and 0.04555 min⁻¹ and 0.04384 min⁻¹. The MRTINF_obs (WT mice) was 75.5375 min and 204.311 min and 15.1675 min and 13.6977 min and 13.2162 min and 17.7544 min, the MRTINF_pred (WT mice) was 78.3253 min and 206.57 min and 14.5971 min and 13.2932 min and 12.5578 min and 17.0687 min and the MRTlast (WT mice) was 31.2438 min and 19.7651 min and 14.1643 min and 13.018 min and 12.1604 min and 16.5905 min. For the same compound, the Tlast (WT mice) was 240 min and 120 min, the Tmax (WT mice) was 15 min and the Vss_obs (WT mice) was 56.2718 L/kg and 101.954 L/kg and 10.8018 L/kg and 7.47626 L/kg and 7.87812 L/kg and 9.11723 L/kg. For the same compound, the Vss_pred (WT mice) was 57.954 L/kg and 102.794 L/kg and 10.4424 L/kg and 7.27861 L/kg and 7.52393 L/kg and 8.81315 L/kg, the Vz_obs (WT mice) was 184.58 L/kg and 386.714 L/kg and 15.7633 L/kg and 11.2559 L/kg and 13.087 L/kg and 11.7142 L/kg and the Vz_pred (WT mice) was 183.332 L/kg and 385.636 L/kg and 15.8341 L/kg and 11.2918 L/kg and 13.154 L/kg and 11.7784 L/kg. For the same compound, the “AUC (Last)” value (Slc28a1+/+ mice, single i.v. dFdC 50 mg/kg) was 81307.3 ± 4123.2 ng x min/mL and 81307 ng x min/mL, the “AUC (Last)” value [1] was 52203.2 ± 3611.3 ng x min/mL and 52203 ng x min/mL and the “CL (systemic clearance)” value [1] was 950 mL/min/kg.
